# Patent US4714705A, “4-nitrogen substituted isoquinolinol compounds having cardiotonic, phosphodiesterase fraction III inhibiting properties and/or renal vasodilating properties” (Ortho Pharmaceutical Corporation, priority 1986, dated 1987)
# Where two headings read alike, the source gives them in different places.
# Columns and labels:
# adult mongrel dogs [1] = test: Acute in vivo cardiotonic activity in anesthetized dogs; design: species or system dog (adult mongrel); conditions: Canis lupus familiaris, relative to controls; for change in vivo at 0.15 mg/kg: 0.150 mg/kg intravenous; for change in vivo at 1.875 mg/kg: 1.875 mg/kg intravenous; for change in vivo at 0.125 mg/kg: 0.125 mg/kg intravenous; for change in vivo at 0.375 mg/kg: 0.375 mg/kg intravenous; for change in vivo at 0.875 mg/kg: 0.875 mg/kg intravenous; for change in vivo at 8.75 mg/kg: 8.75 mg/kg intravenous; for change in vivo at 0.12 mg/kg: 0.12 mg/kg intravenous
# Experimental: The acute in vivo cardiotonic activity of compounds prepared according to the present invention was determined according to a modification of the procedure described by Alousi et al., Circ. Res., 45, 666 (1979).
# In particular, adult mongrel dogs were anesthetized with sodium pentobarbital and were artificially respired. Arterial pressure was monitored via a femoral artery, and the pulse pressure was used to trigger a cardiotachometer for heart rate. Left ventricular pressure was determined with a Millar catheter, and dP/dt (the change in ventricular pressure with time) was derived. Cardiac output was determined by measuring ascending aortic blood flow with an electromagnetic flow probe, and myocardial contractile force was measured with a Walton Brodie strain gauge sutured to the right ventricle. Lead II EKG was also recorded.
# A standard dose (10 μ/kg/min) of dopamine was administered to assess myocardial responsiveness.
# Compounds of the invention were administered by intravenous infusion or bolus oral administration, and the effects on cardiovascular parameters were determined.
# Dose related effects on the test compound on blood pressure (BP), heart rate (HR), maximum change in left ventricular pressure with time (dP/dt max), % change in cardiac force (CF) and the increase in mean arterial blood pressure relative to controls (MABP) were compared to pretreatment control values, expressed as a % change and rated for activity. Statistical evaluations were made using the appropriate parametric test against controls.
# adult mongrel dogs [2] = test: Renal vasodilating activity in anesthetized dogs; type: in vivo, dog (adult mongrel); conditions: Canis lupus familiaris; for change in vivo at 0.2 mg/kg: 0.2 mg/kg intravenous; for change in vivo at 6.2 mg/kg: 6.2 mg/kg intravenous; for change in vivo at 0.04 mg/kg: 0.04 mg/kg intravenous; for change in vivo at 0.34 mg/kg: 0.34 mg/kg intravenous; for change in vivo at 1.2 mg/kg: 1.2 mg/kg intravenous; for change in vivo at 0.14 mg/kg: 0.14 mg/kg intravenous
# Experimental: Goldberg et al, J. Pharmacol. Exp. Ther., 163, 188 (1968), performed an investigation of the structural requirements for dopamine-like renal vasodilation of phenethylamines and apmorphine. The following procedure is a variation of the assay described in that report.
# Adult mongrel dogs were anesthetized and surgically prepared for electromagnetic measurement of renal artery blood flow. A carotid artery was cannulated for measuring arterial blood pressure, and drugs were administered intravenously or intraarterially (via the renal artery). Heart rate was monitored with a cardiotachometer. Renal vascular resistance was calculated as the ratio of mean arterial blood pressure/renal artery blood flow. Dopamine was infused intravenously at […] for ten minutes (at an infusion rate of about 1 ml/min) to determine responsiveness of each dog to renal dopamine receptor stimulation. Cumulative dose-response data were obtained by infusing a compound of this invention at progressively increasing (usually three-fold) infusion rates, esch dose being infused for five minutes. The maximum percent increase from pre-drug control in renal artery blood flow (or a decrease in renal vascular resistance) was determined for each infusion dose.
# RBF values are percent increase in renal blood flow. RVR values are percent increase in renal vascular resistance. MABP and HR are increases in mean arterial blood pressure and heart rate, respectively, relative to controls.
# [3] = read-out: CF, percent change in cardiac force
# [4] = read-out: HR, percent change in heart rate
# [5] = read-out: MABP, mean arterial blood pressure
# [6] = read-out: dP/dt, maximum change left ventricular pressure with time
# [7] = relative to controls, read-out: HR, percent change in heart rate
# [8] = relative to controls, read-out: MABP, mean arterial blood pressure
# [9] = relative to controls, read-out: RBF, renal blood flow
# [10] = relative to controls, read-out: RVR, renal vascular resistance
compound,measurement,setting,value
"COc1cc2c(C)nc(O)c([N+](=O)[O-])c2cc1OC [Compound BA, 3-Hydroxy-6,7-dimethoxy-1-methyl-4-nitroisoquinoline]",change in vivo at 0.15 mg/kg,adult mongrel dogs [1]; [3],92%
same,change in vivo at 0.15 mg/kg,adult mongrel dogs [1]; [4],8%
same,change in vivo at 0.15 mg/kg,adult mongrel dogs [1]; [5],-19%
same,change in vivo at 0.15 mg/kg,adult mongrel dogs [1]; [6],63%
same,change in vivo at 0.2 mg/kg,adult mongrel dogs [2]; [7],83%
same,change in vivo at 0.2 mg/kg,adult mongrel dogs [2]; [8],-12%
same,change in vivo at 0.2 mg/kg,adult mongrel dogs [2]; [9],14%
same,change in vivo at 0.2 mg/kg,adult mongrel dogs [2]; [10],-23%
Cc1nc(O)c([N+](=O)[O-])c2cc3c(cc12)OCO3 [Compound BB],change in vivo at 1.875 mg/kg,adult mongrel dogs [1]; [3],28%
same,change in vivo at 1.875 mg/kg,adult mongrel dogs [1]; [4],-17%
same,change in vivo at 1.875 mg/kg,adult mongrel dogs [1]; [5],-8%
same,change in vivo at 1.875 mg/kg,adult mongrel dogs [1]; [6],-1%
same,change in vivo at 6.2 mg/kg,adult mongrel dogs [2]; [7],90%
same,change in vivo at 6.2 mg/kg,adult mongrel dogs [2]; [8],-16%
same,change in vivo at 6.2 mg/kg,adult mongrel dogs [2]; [9],19%
same,change in vivo at 6.2 mg/kg,adult mongrel dogs [2]; [10],-30%
CCOc1cc2c(C)nc(O)c([N+](=O)[O-])c2cc1OC [BH],change in vivo at 0.125 mg/kg,adult mongrel dogs [1]; [3],134%
same,change in vivo at 0.125 mg/kg,adult mongrel dogs [1]; [4],18%
same,change in vivo at 0.125 mg/kg,adult mongrel dogs [1]; [5],-24%
same,change in vivo at 0.125 mg/kg,adult mongrel dogs [1]; [6],74%
same,change in vivo at 0.04 mg/kg,adult mongrel dogs [2]; [7],19%
same,change in vivo at 0.04 mg/kg,adult mongrel dogs [2]; [8],-10%
same,change in vivo at 0.04 mg/kg,adult mongrel dogs [2]; [9],25%
same,change in vivo at 0.04 mg/kg,adult mongrel dogs [2]; [10],-28%
CCOc1cc2c(C)nc(O)c([N+](=O)[O-])c2cc1OCC [BK],change in vivo at 0.375 mg/kg,adult mongrel dogs [1]; [3],62%
same,change in vivo at 0.375 mg/kg,adult mongrel dogs [1]; [4],11%
same,change in vivo at 0.375 mg/kg,adult mongrel dogs [1]; [5],-2%
same,change in vivo at 0.375 mg/kg,adult mongrel dogs [1]; [6],22%
same,change in vivo at 0.34 mg/kg,adult mongrel dogs [2]; [7],3%
same,change in vivo at 0.34 mg/kg,adult mongrel dogs [2]; [8],-21%
same,change in vivo at 0.34 mg/kg,adult mongrel dogs [2]; [9],14%
same,change in vivo at 0.34 mg/kg,adult mongrel dogs [2]; [10],-30%
COc1cc2cnc(O)c(NC(C)=O)c2cc1OC [BF],change in vivo at 1.875 mg/kg,adult mongrel dogs [1]; [3],23%
same,change in vivo at 1.875 mg/kg,adult mongrel dogs [1]; [4],7%
same,change in vivo at 1.875 mg/kg,adult mongrel dogs [1]; [5],1%
same,change in vivo at 1.875 mg/kg,adult mongrel dogs [1]; [6],38%
same,change in vivo at 6.2 mg/kg,adult mongrel dogs [2]; [7],-8%
same,change in vivo at 6.2 mg/kg,adult mongrel dogs [2]; [8],14%
same,change in vivo at 6.2 mg/kg,adult mongrel dogs [2]; [9],30%
same,change in vivo at 6.2 mg/kg,adult mongrel dogs [2]; [10],-12%
COc1cc2c([N+](=O)[O-])c(O)nc(C)c2c(OC)c1OC [BE],change in vivo at 0.875 mg/kg,adult mongrel dogs [1]; [3],84%
same,change in vivo at 0.875 mg/kg,adult mongrel dogs [1]; [4],18%
same,change in vivo at 0.875 mg/kg,adult mongrel dogs [1]; [5],-22%
same,change in vivo at 0.875 mg/kg,adult mongrel dogs [1]; [6],38%
same,change in vivo at 1.2 mg/kg,adult mongrel dogs [2]; [7],32%
same,change in vivo at 1.2 mg/kg,adult mongrel dogs [2]; [8],-26%
same,change in vivo at 1.2 mg/kg,adult mongrel dogs [2]; [9],60%
same,change in vivo at 1.2 mg/kg,adult mongrel dogs [2]; [10],-52%
"COc1cc2c(C)nc(O)c(NC(C)=O)c2cc1OC [Compound BG, 4-Acetamido-3-hydroxy-6,7-dimethoxy-1-methylisoquinoline Hemihydrate]",change in vivo at 8.75 mg/kg,adult mongrel dogs [1]; [3],47%
same,change in vivo at 8.75 mg/kg,adult mongrel dogs [1]; [4],5%
same,change in vivo at 8.75 mg/kg,adult mongrel dogs [1]; [5],-3%
same,change in vivo at 8.75 mg/kg,adult mongrel dogs [1]; [6],33%
same,change in vivo at 6.2 mg/kg,adult mongrel dogs [2]; [7],14%
same,change in vivo at 6.2 mg/kg,adult mongrel dogs [2]; [8],6%
same,change in vivo at 6.2 mg/kg,adult mongrel dogs [2]; [9],39%
same,change in vivo at 6.2 mg/kg,adult mongrel dogs [2]; [10],-24%
COc1cc2c(-c3ccccc3)nc(O)c([N+](=O)[O-])c2cc1OC [BL],change in vivo at 1.875 mg/kg,adult mongrel dogs [1]; [3],10%
same,change in vivo at 1.875 mg/kg,adult mongrel dogs [1]; [4],-29%
same,change in vivo at 1.875 mg/kg,adult mongrel dogs [1]; [5],-15%
same,change in vivo at 1.875 mg/kg,adult mongrel dogs [1]; [6],11%
same,change in vivo at 0.34 mg/kg,adult mongrel dogs [2]; [7],29%
same,change in vivo at 0.34 mg/kg,adult mongrel dogs [2]; [8],6%
same,change in vivo at 0.34 mg/kg,adult mongrel dogs [2]; [9],13%
same,change in vivo at 0.34 mg/kg,adult mongrel dogs [2]; [10],-5%
CCOc1cc2c(C)nc(O)c(NC(C)=O)c2cc1OC [BJ],change in vivo at 1.875 mg/kg,adult mongrel dogs [1]; [3],21%
same,change in vivo at 1.875 mg/kg,adult mongrel dogs [1]; [4],-3%
same,change in vivo at 1.875 mg/kg,adult mongrel dogs [1]; [5],1%
same,change in vivo at 1.875 mg/kg,adult mongrel dogs [1]; [6],8%
same,change in vivo at 6.34 mg/kg,"adult mongrel dogs [2]; iv, read-out: HR, percent change in heart rate",-16%
same,change in vivo at 6.34 mg/kg,"adult mongrel dogs [2]; 6.34 mg/kg intravenous, relative to controls, read-out: MABP, mean arterial blood pressure",-4%
same,change in vivo at 6.34 mg/kg,"adult mongrel dogs [2]; 6.34 mg/kg intravenous, relative to controls, read-out: RBF, renal blood flow",18%
same,change in vivo at 6.34 mg/kg,"adult mongrel dogs [2]; 6.34 mg/kg intravenous, relative to controls, read-out: RVR, renal vascular resistance",-19%
CCCCOc1cc2c(C)nc(O)c([N+](=O)[O-])c2cc1OC [BI],change in vivo at 0.375 mg/kg,adult mongrel dogs [1]; [3],118%
same,change in vivo at 0.375 mg/kg,adult mongrel dogs [1]; [4],30%
same,change in vivo at 0.375 mg/kg,adult mongrel dogs [1]; [5],-35%
same,change in vivo at 0.375 mg/kg,adult mongrel dogs [1]; [6],8%
same,change in vivo at 0.14 mg/kg,adult mongrel dogs [2]; [8],-8%
same,change in vivo at 0.14 mg/kg,adult mongrel dogs [2]; [9],16%
same,change in vivo at 0.14 mg/kg,adult mongrel dogs [2]; [10],-18%
O=[N+]([O-])c1c(O)ncc2cc3c(cc12)OCO3 [Compound BC],change in vivo at 1.875 mg/kg,adult mongrel dogs [1]; [3],16%
same,change in vivo at 1.875 mg/kg,adult mongrel dogs [1]; [4],0%
same,change in vivo at 1.875 mg/kg,adult mongrel dogs [1]; [5],-7.5%
same,change in vivo at 1.875 mg/kg,adult mongrel dogs [1]; [6],22%
same,change in vivo at 1.2 mg/kg,adult mongrel dogs [2]; [7],-6%
same,change in vivo at 1.2 mg/kg,adult mongrel dogs [2]; [8],-14%
same,change in vivo at 1.2 mg/kg,adult mongrel dogs [2]; [9],20%
same,change in vivo at 1.2 mg/kg,adult mongrel dogs [2]; [10],-28%
CCOc1cc2c([N+](=O)[O-])c(O)nc(C)c2cc1OC [BAN],change in vivo at 0.12 mg/kg,adult mongrel dogs [1]; [3],49%
same,change in vivo at 0.12 mg/kg,adult mongrel dogs [1]; [4],4%
same,change in vivo at 0.12 mg/kg,adult mongrel dogs [1]; [5],-18%
same,change in vivo at 0.12 mg/kg,adult mongrel dogs [1]; [6],12%
same,change in vivo at 6.2 mg/kg,adult mongrel dogs [2]; [7],-5%
same,change in vivo at 6.2 mg/kg,adult mongrel dogs [2]; [8],1%
same,change in vivo at 6.2 mg/kg,adult mongrel dogs [2]; [9],61%
same,change in vivo at 6.2 mg/kg,adult mongrel dogs [2]; [10],-37%
